Assay results: patent publication US8791132B2, “Compounds and methods for treatment of hypertension” (Medivation Technologies, Inc., priority 2011, dated 2014)
Values belong to the compound of their own block, whether it stands above or below them.

Key:
[1] = biological target: T1, human recombinant adrenergic α2B receptor (Homo sapiens, UniProt P18089); test: Radioligand binding, adrenergic α2B ([3H]Rauwolscine); details: for inhibition at 0.03 µM: read-out: Percentage inhibition of ligand binding, Adrenergic α2B (0.03 μM), compound at 0.03 μM
T1 construct: expressed in transfected cells; host or cells: CHO-K1
T1 sequence (P18089 1-450): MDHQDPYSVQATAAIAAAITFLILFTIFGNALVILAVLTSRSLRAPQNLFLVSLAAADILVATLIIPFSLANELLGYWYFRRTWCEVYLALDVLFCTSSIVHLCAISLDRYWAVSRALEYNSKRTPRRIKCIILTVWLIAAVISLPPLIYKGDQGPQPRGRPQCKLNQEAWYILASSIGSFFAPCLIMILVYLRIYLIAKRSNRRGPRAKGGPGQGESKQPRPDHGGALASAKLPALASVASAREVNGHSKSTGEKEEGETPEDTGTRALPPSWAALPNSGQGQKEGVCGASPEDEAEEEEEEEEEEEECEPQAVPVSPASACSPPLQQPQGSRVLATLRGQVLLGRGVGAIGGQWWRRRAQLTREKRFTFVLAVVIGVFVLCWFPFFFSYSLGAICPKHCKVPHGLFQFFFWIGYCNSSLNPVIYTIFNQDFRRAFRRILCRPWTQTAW
Outline: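 Values are percent inhibition of specific radioligand binding. The receptor, expressed in CHO-K1 cells, was exposed to 2.5 nM [3H]Rauwolscine at 25° C for 60 min, with 10 μM Prazosin marking non-specific binding.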

[2] = biological target: T2, human recombinant adrenergic α2A receptor (Homo sapiens, UniProt P08913); test: Radioligand binding, adrenergic α2A ([3H]MK-912); details: read-out: Percentage inhibition of ligand binding, Adrenergic α2A (0.1 μM), compound at 0.1 μM; [3H]MK-912; repeat datapoints each shown
T2 construct: expressed in transfected cells; host or cells: insect Sf9 cells
T2 sequence (P08913 1-465): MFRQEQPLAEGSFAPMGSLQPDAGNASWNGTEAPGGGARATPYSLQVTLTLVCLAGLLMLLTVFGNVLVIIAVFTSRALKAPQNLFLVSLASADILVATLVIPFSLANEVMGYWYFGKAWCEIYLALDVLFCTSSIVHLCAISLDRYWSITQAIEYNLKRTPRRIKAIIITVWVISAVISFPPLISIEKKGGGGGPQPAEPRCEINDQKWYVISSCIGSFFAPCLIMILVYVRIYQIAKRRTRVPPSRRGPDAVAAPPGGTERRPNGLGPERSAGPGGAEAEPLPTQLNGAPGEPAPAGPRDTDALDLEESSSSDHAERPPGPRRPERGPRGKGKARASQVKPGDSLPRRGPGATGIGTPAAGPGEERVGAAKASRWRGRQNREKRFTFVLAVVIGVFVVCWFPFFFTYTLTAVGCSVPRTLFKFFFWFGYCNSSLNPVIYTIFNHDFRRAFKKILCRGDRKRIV
Outline: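 Sf9-expressed receptor was incubated with compound for 60 min at 25 °C in modified Tris-HCl buffer, pH 7.4. Nonspecific binding was taken as that remaining with 10 μM WB-4101.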

[3] = biological target: T3, rat adrenergic α1B receptor (Rattus norvegicus, UniProt P15823); test: Radioligand binding, adrenergic α1B ([3H]Prazosin); details: [3H]Prazosin, repeat datapoints each shown; for inhibition at 0.1 µM: read-out: Percentage inhibition of ligand binding, Adrenergic α1B (0.1 μM), compound at 0.1 μM
T3 construct: rat adrenergic α1B receptor obtained from Wistar Rat liver; from tissue; host or cells: Wistar rat liver
T3 sequence (P15823 1-515): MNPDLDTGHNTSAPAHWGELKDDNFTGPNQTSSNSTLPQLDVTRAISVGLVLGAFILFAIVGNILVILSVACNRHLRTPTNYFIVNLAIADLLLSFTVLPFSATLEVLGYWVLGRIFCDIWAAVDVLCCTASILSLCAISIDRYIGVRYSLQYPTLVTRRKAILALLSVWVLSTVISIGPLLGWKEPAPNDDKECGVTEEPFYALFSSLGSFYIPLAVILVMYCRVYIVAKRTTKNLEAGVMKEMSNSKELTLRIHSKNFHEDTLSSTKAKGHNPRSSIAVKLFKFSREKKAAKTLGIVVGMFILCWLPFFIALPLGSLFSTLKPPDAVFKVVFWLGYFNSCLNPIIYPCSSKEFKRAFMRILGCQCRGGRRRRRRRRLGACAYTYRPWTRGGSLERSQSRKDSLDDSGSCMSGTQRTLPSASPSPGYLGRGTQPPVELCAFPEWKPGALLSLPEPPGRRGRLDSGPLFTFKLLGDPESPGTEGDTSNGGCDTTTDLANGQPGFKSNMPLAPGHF
Outline: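 Filter binding with Wistar rat liver α1B preparation: test compound plus 0.25 nM [3H]prazosin, 1 h at 25° C in modified Tris-HCl buffer pH 7.4.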

[4] = [3H]Rauwolscine, repeat datapoints each shown

- inhibition at 0.03 µM [1, 4]: 0%
- inhibition at 0.1 µM [2]: 10%
- inhibition at 0.1 µM [3]: -1%
SMILES: Cc1ccc2c(c1)c1c(n2CC(CN)c2ccncc2)CCN(C)C1 (centres unmarked) [II-221]

- inhibition at 0.03 µM [1, 4]: 99%
- inhibition at 0.1 µM [2]: 26%
- inhibition at 0.1 µM [3]: 19%
SMILES: Cc1ccc2c(c1)c1c(n2CC(CC(=O)C(C)(C)C)c2ccncc2)CCN(C)C1 (centres unmarked) [II-222, 6-(2,8-dimethyl-1,2,3,4-tetrahydro-pyrido[4,3-b]indol-5-yl)-2,2-dimethyl-5-pyridin-4-yl-hexan-3-one]

- inhibition at 0.03 µM [1, 4]: 88%
- inhibition at 0.1 µM [2]: 8%
- inhibition at 0.1 µM [3]: 9%
SMILES: COC(=O)CC(Cn1c2c(c3cc(C)ccc31)CN(C)CC2)c1ccncc1 (centres unmarked) [II-223, 4-(2,8-dimethyl-1,2,3,4-tetrahydro-pyrido[4,3-b]indol-5-yl)-3-pyridin-4-yl-butyric acid methyl ester]

- inhibition at 0.03 µM [1, 4]: 68%
- inhibition at 0.1 µM [2]: 22%
- inhibition at 0.1 µM [3]: 13%
SMILES: Cc1ccc2c(c1)c1c(n2CC(CCO)c2ccncc2)CCN(C)C1 (centres unmarked) [II-224, 4-(2,8-dimethyl-1,2,3,4-tetrahydro-pyrido[4,3-b]indol-5-yl)-3-pyridin-4-yl-butan-1-ol]

- inhibition at 0.03 µM [1, 4]: 8%
- inhibition at 0.1 µM [2]: -1%
- inhibition at 0.1 µM [3]: 9%
SMILES: Cc1ccc2c(c1)c1c(n2CC(CO)c2ccncc2)CCN(C)C1 (centres unmarked) [II-225]

- inhibition at 0.03 µM [1, 4]: 40%
- inhibition at 0.1 µM [2]: 4%
- inhibition at 0.1 µM [3]: 15%
SMILES: Cc1ccc2c(c1)c1c(n2CC(CC(C)(C)O)c2ccncc2)CCN(C)C1 (centres unmarked) [II-226, 5-(2,8-dimethyl-1,2,3,4-tetrahydro-pyrido[4,3-b]indol-5-yl)-2-methyl-4-pyridin-4-yl-pentan-2-ol]

- inhibition at 0.03 µM [1, 4]: 10%
- inhibition at 0.1 µM [2]: 3%
- inhibition at 0.1 µM [3]: -2%
SMILES: Cc1ccc2c(c1)c1c(n2CC(CC(=O)O)c2ccncc2)CCN(C)C1 (centres unmarked) [II-228]

- inhibition at 0.03 µM [1, 4]: 12%
- inhibition at 0.1 µM [2]: 6%
- inhibition at 0.1 µM [3]: 3%
SMILES: Cc1ccc2c(c1)c1c(n2CC(CC(N)=O)c2ccncc2)CCN(C)C1 (centres unmarked) [II-229, 4-(2,8-dimethyl-1,2,3,4-tetrahydro-pyrido[4,3-b]indol-5-yl)-3-pyridin-4-yl-butyramide]

- inhibition at 0.03 µM [1, 4]: 22%
- inhibition at 0.1 µM [2]: 1%
- inhibition at 0.1 µM [3]: -2%
SMILES: Cc1ccc2c(c1)c1c(n2CC(CC(=O)N(C)C)c2ccncc2)CCN(C)C1 (centres unmarked) [II-230, 4-(2,8-dimethyl-1,2,3,4-tetrahydro-pyrido[4,3-b]indol-5-yl)-N,N-dimethyl-3-pyridin-4-yl-butyramide]

- inhibition at 0.03 µM [1, 4]: -2%
- inhibition at 0.1 µM [2]: 9%
- inhibition at 0.1 µM [3]: 11%
SMILES: Cc1ccc2c(c1)c1c(n2CC(CCN)c2ccncc2)CCN(C)C1 (centres unmarked) [II-231, 4-(2,8-dimethyl-1,2,3,4-tetrahydro-pyrido[4,3-b]indol-5-yl)-3-pyridin-4-yl-butylamine]

- inhibition at 0.03 µM [1, 4]: 28%
- inhibition at 0.1 µM [2]: 3%
- inhibition at 0.1 µM [3]: 3%
SMILES: Cc1ccc2c(c1)c1c(n2CC(CCN(C)C)c2ccncc2)CCN(C)C1 (centres unmarked) [II-232, [4-(2,8-dimethyl-1,2,3,4-tetrahydro-pyrido[4,3-b]indol-5-yl)-3-pyridin-4-yl-butyl]-dimethyl-amine]

More lines, now with the values behind:

SMILES: Cc1ccc2c(c1)c1c(n2CC(C)(O)c2cnco2)CCN(C)C1 (centres unmarked) [II-142, 1-(1,2,3,4-tetrahydro-2,8-dimethylpyrido[4,3-b]indol-5-yl)-2-(oxazol-5-yl)propan-2-ol]
- inhibition at 0.03 µM [1, 4]: 23%
- inhibition at 0.1 µM [2]: -4%
- inhibition at 0.1 µM [3]: 5%

SMILES: Cc1ccc2c(c1)c1c(n2CC(C)(O)c2ccc[nH]c2=O)CCN(C)C1 (centres unmarked) [II-143, 3-(1-(1,2,3,4-tetrahydro-2,8-dimethylpyrido[4,3-b]indol-5-yl)-2-hydroxypropan-2-yl)pyridin-2(1H)-one]
- inhibition at 0.03 µM [1, 4]: 22%
- inhibition at 0.1 µM [2]: -3%
- inhibition at 0.1 µM [3]: 13%

SMILES: Cc1ccc2c(c1)c1c(n2CC(C)(O)c2cnccc2Cl)CCN(C)C1 (centres unmarked) [II-148]
- inhibition at 0.03 µM [1, 4]: 93%
- inhibition at 0.1 µM [2]: 27%
- inhibition at 0.1 µM [3]: 21%

SMILES: Cc1ccc2c(c1CO)c1c(n2CC(O)c2ccncc2)CCN(C)C1 (centres unmarked) [II-150, 2-(9-(hydroxymethyl)-2,8-dimethyl-3,4-dihydro-1H-pyrido[4,3-b]indol-5(2H)-yl)-1-(pyridin-4-yl)ethanol]
- inhibition at 0.03 µM [1, 4]: 30%
- inhibition at 0.1 µM [2]: 5%
- inhibition at 0.1 µM [3]: 14%

SMILES: Cc1ccc2c(c1CO)c1c(n2CC(C)(O)c2cccnc2)CCN(C)C1 (centres unmarked) [II-153]
- inhibition at 0.03 µM [1, 4]: 7%
- inhibition at 0.1 µM [2]: 2%
- inhibition at 0.1 µM [3]: 2%

SMILES: Cc1cc2c3c(n(CC(C)(O)c4cccnc4)c2cc1CO)CCN(C)C3 (centres unmarked) [II-154]
- inhibition at 0.03 µM [1, 4]: 73%
- inhibition at 0.1 µM [2]: 11%
- inhibition at 0.1 µM [3]: 2%

SMILES: Cc1ccc2c(c1)c1c(n2C(C)(C)C(O)c2ccccc2)CCN(C)C1 (centres unmarked) [II-187]
- inhibition at 0.03 µM [1, 4]: 27%
- inhibition at 0.1 µM [2]: 10%
- inhibition at 0.1 µM [3]: 54%

SMILES: Cc1ccc2c(c1)c1c(n2CC(C)(F)c2cccnc2)CCN(C)C1 (centres unmarked) [II-212, 5-(2-Fluoro-2-pyridin-3-yl-propyl)-2,8-dimethyl-2,3,4,5-tetrahydro-1H-pyrido[4,3-b]indole]
- inhibition at 0.03 µM [1, 4]: 73%
- inhibition at 0.1 µM [2]: 19%
- inhibition at 0.1 µM [3]: 29%

SMILES: CN1CCc2c(c3cc(CO)ccc3n2CC(C)(F)c2cccnc2)C1 (centres unmarked) [II-213, [5-(2-fluoro-2-pyridin-3-yl-propyl)-2-methyl-2,3,4,5-tetrahydro-1H-pyrido[4,3-b]indol-8-yl]-methanol]
- inhibition at 0.03 µM [1, 4]: 11%
- inhibition at 0.1 µM [2]: 12%
- inhibition at 0.1 µM [3]: -3%

SMILES: Cc1cnc2c(c1)c1c(n2CCc2ccncc2)CCN(C)C1 [II-240]
- inhibition at 0.03 µM [1, 4]: 53%
- inhibition at 0.1 µM [2]: 7%
- inhibition at 0.1 µM [3]: 57%

SMILES: CN1CCc2c(c3ncccc3n2CC(O)c2ccncc2)C1 (centres unmarked) [II-241]
- inhibition at 0.03 µM [1, 4]: -1%
- inhibition at 0.1 µM [2]: -1%
- inhibition at 0.1 µM [3]: 5%

SMILES: CN1CCc2c(c3ccncc3n2CC(O)c2ccncc2)C1 (centres unmarked) [II-242]
- inhibition at 0.03 µM [1, 4]: 3%
- inhibition at 0.1 µM [2]: 2%
- inhibition at 0.1 µM [3]: 4%

SMILES: Cc1cnc2c(c1)c1c(n2CCc2ccc(C(N)=O)nc2)CCN2CCCC12 (centres unmarked) [II-243, 5-[2-(9-methyl-1,2,3,4,5,10c-hexahydro-3a,6,7-triaza-cyclopenta[c]fluoren-6-yl)-ethyl]-pyridine-2-carboxylic acid amide]
- Percentage inhibition of ligand binding, Adrenergic α2B (0.03 μM) ([1]; compound at 0.03 μM, [3H]Rauwolscine, repeat datapoints each shown, 0.03 µM): 61%
- Ki ([1]; read-out: Ki α2B): 9.44 nM
- inhibition at 0.03 µM [1, 4]: 58%
- inhibition at 0.1 µM ([1]; read-out: Percentage inhibition of ligand binding, Adrenergic α2B (0.1 μM), compound at 0.1 μM, [3H]Rauwolscine, repeat datapoints each shown): 82%
- inhibition at 0.1 µM [2]: 19%
- Percentage inhibition of ligand binding, Adrenergic α1B (0.1 μM) ([3]; compound at 0.1 μM, 0.1 µM): 93%
- inhibition at 0.03 µM ([3]; read-out: Percentage inhibition of ligand binding, Adrenergic α1B (0.03 μM), compound at 0.03 μM): 79%
- inhibition at 0.1 µM [3]: 91%

SMILES: Cc1cnc2c(c1)c1c(n2CCc2cnccn2)CCN2CCCC12 (centres unmarked) [II-245]
- inhibition at 0.03 µM [1, 4]: 44%
- inhibition at 0.1 µM [2]: 7%
- inhibition at 0.1 µM [3]: 27%
